The values below come from US9708310B2, “Phenanthroindolizidine and phenanthroquinolizidine alkaloid having a hydroxyl group on the phenanthrene ring thereof, preparation method and use thereof” (CHINA MEDICAL UNIVERSITY, priority 2015, dated 2017).

pIC50: −log10 of the molar value. Where only a bound is given, the exact number is not on record here.

One series relates to rats. As to conditions: high doses; cited from earlier work.
The conditions of series [1]: cited from earlier work.
For series [2] the following is noted: early clinical trial; cited from earlier work.
For series [3] the following is noted: predicted by PreADMET; cited from earlier work.
The test system of series [4] is breast carcinoma (MCF-7) cells. The experiment in a line: Cell viability (MTT) assay, MCF-7. Format: cell-based, human. Here is the method: (§1) 8. Typical Procedure for Cell Viability Assay
(§2) The breast carcinoma (MCF-7), lung carcinoma (H1299), and prostate carcinoma (DU145) cells were first plated at a density of 5×10^3 cells per well in 96-well plates for overnight and then treated with different concentrations of these compounds. After 48 h of treatment, 100 µL of MTT solution was added to each well and the cells were incubated for 1 h at 37° C. Then, the MTT solution was completely removed and […] of DMSO was added to solubilize the MTT formazan crystals. Finally, the absorbance was measured using a MQX200R microplate reader (BioTek, VT, USA) at a wavelength of 550 nm.

The test system of series [5] is lung carcinoma (H1299) cells. Nature of the series: Cell viability (MTT) assay, H1299. The format is cell-based, human. Here is the method:
as §1, §2

Series [6] relates to prostate carcinoma (DU145) cells. The experiment in a line: Cell viability (MTT) assay, DU145. The format is cell-based, human. The procedure:
as §1, §2

Series [7] relates to MCF-7, H1299, DU145 cancer cell lines. Format: cell-based, human. Here is the method:
as §2
The cytotoxic activities of 18 compounds 4a-i and 5a-i were evaluated against three human cancer cell lines, breast carcinoma (MCF-7), lung carcinoma (H1299), and prostate carcinoma (DU145), using tylophorine (4i) and 7-methoxycryptopleurine (5i) for comparison. […] In the phenanthroindolizidine series, the IC50 ratio of compounds 4a-h to tylophorine (4i) followed the order: 4a˜4h˜4e>4f>>4b˜[…]>4d>4g; however, in the phenanthroquinolizidine series, the IC50 ratio of compounds 5a-h to 7-methoxycryptopleurine (5i) followed the order: 5c˜5a˜5h˜5b>>5f˜5d>5e>5g. […] Based on the SAR results, a more polar phenanthroquinolizidine, 7-hydroxycryptopleurine (20), was designed and synthesized to decrease the CNS toxicity and increase the water solubility. […]

[8] abbreviates: Homo sapiens, MCF7, 48 h treatment.
The mark [9] stands for this setting: Homo sapiens, NCI-H1299, 48 h treatment.
Setting [10] is: Homo sapiens, DU-145, 48 h treatment.

With `COc1cc2c3c(c4cc(OC)c(OC)cc4c2cc1OC)CN1CCC[C@@H]1C3` [Compound 1, (R)-tylophorine], in the series with rats, the CNS side effects entry is “caused central nervous system (CNS) side effects”. In addition, the water solubility result in [1] was “low”.

As to `COc1cc2c3c(c4ccc(OC)c(OC)c4c2cc1OC)CN1CCC[C@@H]1C3` [Compound 2, (R)-tylocrebrine], the clinical trial outcome in series [2] is recorded as “failed in the early clinical trial owing to CNS toxicity”.

Regarding `COc1ccc2c3c(c4cc(OC)c(OC)cc4c2c1)C[C@H]1C[C@H](O)CCN1C3` [Compound 3], the BBB penetration entry in [3] is reported as “significantly reduced the BBB penetration”.

As usually defined, the pIC50 is the IC50 on a negative log10 scale, so that one unit is a factor of ten. One may read the melting point as the temperature, or range, at which the solid turns liquid. In turn, `COc1cc2c3c(c4c(OC)c(OC)c(OC)cc4c2cc1OC)CC1CCCN1C3` (centres unmarked) [Compound 4a, 1,2,3,6,7-Pentamethoxy-11,12,12a,13-tetrahydro-10H-9a-azacyclopenta[b]triphenylene] showed a melting point of 225 to 226 °C. In series [4] (setting [8]), this compound showed a pIC50 of less than 5.60. For the same compound, the pIC50 in series [5] (setting [9]) is less than 5.60. This compound also showed a pIC50 in series [6] (setting [10]) of less than 5.60.

As to `COc1ccc2c3c(c4cc(OC)c(OC)cc4c2c1)CN1CCC[C@H]1C3` [Compound 4b, Deoxypergularinine], the pIC50 in [4] (48 h treatment) was 6.52; in series [5] (48 h treatment) it was 6.63; in series [6] (48 h treatment), 6.76.

`COc1ccc2c(c1)c1c(c3cc(OC)c(OC)cc32)CN2CCCC2C1` (centres unmarked) [Compound 4c, 2,6,7-Trimethoxy-11,12,12a,13-tetrahydro-10H-9a-azacyclopenta[b]triphenylene] displayed a melting point of 187 to 189 °C. The compound further gave a negative logarithm of the IC50 (pIC50) in [4] (setting [8]) of 5.61. The compound also showed a pIC50 in series [5] (setting [9]) of less than 5.60. Also, the pIC50 in series [6] (setting [10]) is 5.67.

Take `COc1cc2c3c(c4cc(OC)c(OC)c(OC)c4c2cc1OC)CC1CCCN1C3` (centres unmarked) [Compound 4d, 4-Methoxytylophorine]: the pIC50 was 7.21 in series [4] (48 h treatment), 7.27 in series [5] (48 h treatment) and 7.23 in series [6] (48 h treatment).

The compound `COc1cc2c3c(c4cc(OC)c(OC)c(OC)c4c2cc1OC)CN1CCCC1C3` (centres unmarked) [Compound 4e, 2,3,5,6,7-Pentamethoxy-11,12,12a,13-tetrahydro-10H-9a-azacyclopenta[b]triphenylene] showed a melting point of 169 to 170 °C. In series [4] (setting [8]), the pIC50 is 6.65. In series [5] (setting [9]), this compound gave a pIC50 of 6.78. The compound further gave a pIC50 in series [6] (setting [10]) of 6.82.

`COc1ccc2c3c(c4cc(OC)c(OC)cc4c2c1)C[C@H]1CCCN1C3` [Compound 4g, Antofine]: the pIC50 is 7.37 in series [4] (48 h treatment), 7.49 in series [5] (48 h treatment) and 7.52 in series [6] (48 h treatment).

With `COc1cc2c3c(c4c(OC)c(OC)c(OC)cc4c2cc1OC)CN1CCCC1C3` (centres unmarked) [Compound 4h, 2,3,6,7,8-Pentamethoxy-11,12,12a,13-tetrahydro-10H-9a-azacyclopenta[b]triphenylene], the melting point was 231 °C (dec.). For the same compound, the pIC50 in series [4] (setting [8]) is less than 5.60. This compound showed a pIC50 in series [5] (setting [9]) of less than 5.60. This compound showed a pIC50 in series [6] (setting [10]) of less than 5.60.

With `COc1cc2c3c(c4cc(OC)c(OC)cc4c2cc1OC)CN1CCC[C@@H]1C3` [Compound 4i, Tylophorine], the pIC50 in [4] (48 h treatment) is 7.39; in series [5] (48 h treatment) it was 7.51; in [6] (48 h treatment), 7.55.

Take `COc1cc2c3c(c4c(OC)c(OC)c(OC)cc4c2cc1OC)CC1CCCCN1C3` (centres unmarked) [Compound 5a, 1,2,3,6,7-Pentamethoxy-10,11,12,13,13a,14-hexahydro-9H-9a-azabenzo[b]triphenylene]: the melting point was in the range of 191 to 192 °C. The compound further had a pIC50 in series [4] (setting [8]) of 6.56. Besides, in series [5] (setting [9]), the negative logarithm of the IC50 (pIC50) is 6.60. In series [6] (setting [10]), this compound showed a negative logarithm of the IC50 (pIC50) of 6.57.

Turning to `COc1ccc2c3c(c4cc(OC)c(OC)cc4c2c1)CN1CCCCC1C3` (centres unmarked) [Compound 5b, Boehmeriasin A], the pIC50 in series [4] (48 h treatment) is 6.56; in series [5] (48 h treatment), 6.68; in series [6] (48 h treatment), 6.73.

The compound `COc1ccc2c(c1)c1c(c3cc(OC)c(OC)cc32)CN2CCCCC2C1` (centres unmarked) [Compound 5c, 2,6,7-Trimethoxy-10,11,12,13,13a,14-hexahydro-9H-9a-azabenzo[b]triphenylene] yielded a melting point of 182 to 184 °C. In series [4] (setting [8]), this compound showed a pIC50 of 6.41. This compound showed a negative-log IC50 (pIC50) in [5] (setting [9]) of 6.50. This compound showed a pIC50 in [6] (setting [10]) of 6.55.

Take `COc1cc2c3c(c4cc(OC)c(OC)c(OC)c4c2cc1OC)CC1CCCCN1C3` (centres unmarked) [Compound 5d, 4,7-Dimethoxycryptoplerine]: the figures for the pIC50 in series [4] (48 h treatment), in series [5] (48 h treatment) and in [6] (48 h treatment) were 7.21, 7.26 and 7.45, respectively.

For `COc1cc2c3c(c4cc(OC)c(OC)c(OC)c4c2cc1OC)CN1CCCCC1C3` (centres unmarked) [Compound 5e, 2,3,5,6,7-Pentamethoxy-10,11,12,13,13a,14-hexahydro-9H-9a-azabenzo[b]triphenylene], the melting point was 166 to 167 °C. The compound further showed a pIC50 in [4] (setting [8]) of 7.71. Besides, the pIC50 in [5] (setting [9]) was 7.56. Further, the negative logarithm of the IC50 (pIC50) in series [6] (setting [10]) is 7.62.

Compound `COc1ccc2c(c1)c1c(c3cc(OC)c(OC)cc32)CC2CCCCN2C1` (centres unmarked) [Compound 5f, 2,3,7-Trimethoxy-10,11,12,13,13a,14-hexahydro-9H-9a-azabenzo[b]triphenylene] showed a melting point of 156 to 158 °C. This compound also had a pIC50 in [4] (setting [8]) of 7.16. The compound also gave a pIC50 in series [5] (setting [9]) of 7.24. Further, the pIC50 in series [6] (setting [10]) is 7.38. Besides, the “fold increase in the cytotoxicity relative to compound 4f” value in [7] was 28-36 fold.

For the compound `COc1ccc2c3c(c4cc(OC)c(OC)cc4c2c1)C[C@H]1CCCCN1C3` [Compound 5g, Cryptopleurine], the pIC50 in [4] (48 h treatment) was 7.95; in series [5] (48 h treatment) it was 8.05; in series [6] (48 h treatment), 8.34.

Turning to `COc1cc2c3c(c4c(OC)c(OC)c(OC)cc4c2cc1OC)CN1CCCCC1C3` (centres unmarked) [Compound 5h, 2,3,6,7,8-Pentamethoxy-10,11,12,13,13a,14-hexahydro-9H-9a-azabenzo[b]triphenylene], the melting point was 211 °C (dec.). The compound also gave a pIC50 in series [4] (setting [8]) of 6.56. For the same compound, the negative logarithm of the IC50 (pIC50) in [5] (setting [9]) is 6.63. In addition, the negative-log IC50 (pIC50) in series [6] (setting [10]) was 6.67.

Take Desmethoxytylophorine [Compound 4f]: the pIC50 is 5.72 in [4] (48 h treatment), 5.70 in series [5] (48 h treatment) and 5.82 in [6] (48 h treatment).
